# Assay results taken from patent US12310933B2, “Treatment of demyelinating disorders” (The University of Chicago, priority 2013, dated 2025).
# Columns and labels:
# [1] = system: C57BL/6J mice with chronic EAE; assay: Guanabenz/interferon co-administration in chronic EAE, onset of clinical symptoms; assay type: in vivo, mouse; conditions: for onset of clinical symptoms: daily from post immunization day 7
# Source text: Eight week old C57BL/6J female mice were immunized with MOG35-55/CFA to induce chronic EAE. […] Mice were scored daily for clinical symptoms (0=healthy, 1=flaccid tail, 2=ataxia and/or paresis of hindlimbs, 3=paralysis of hindlimbs and/or paresis of forelimbs, 4=tetraparalysis, 5=moribund or death). […] Onset of clinical symptoms began at approximately day 12 in saline-treated mice and at approximately day 13 in mice treated with interferon alone. […] While preferred embodiments of the present invention have been shown and described herein, it will be obvious to those skilled in the art that such embodiments are provided by way of example only. Numerous variations, changes, and substitutions will now occur to those skilled in the art without departing from the invention. It should be understood that various alternatives to the embodiments of the invention described herein may be employed in practicing the invention. It is intended that the following claims define the scope of the invention and that methods and structures within the scope of these claims and their equivalents be covered thereby.
# [2] = system: differentiating rat oligodendrocyte precursor cells (drOPCs); assay: TUNEL assay for IFN-γ induced apoptosis; assay type: cell-based
# Protocol: Cells were isolated as described previously and plated in chamber slides at 20,000 cells/chamber. Cells were then treated with the same IFN-γ and guanabenz protocol as described previously, then subjected to a TUNEL assay. […] FIG. 3B illustrates the quantitation of the experiment in FIG. 3a. […] Error bars represent mean±SEM for an N=3/group (*p<0.05, **p<0.005, ***p<0.0005)
# [3] = system: differentiating rat oligodendrocyte precursor cells (drOPCs); assay: FDA/PI (fluorescein-diacetate/propidium iodide) live/dead cell viability assay, IFN-γ challenge; assay type: cell-based
# Source text: Interferon-γ is an inflammatory cytokine that is thought to contribute to multiple sclerosis exacerbations, therefore, treatment of cultured cells of the oligodendrocyte lineage with interferon-γ provides a useful cellular model of MS-related inflammation. drOPCs were isolated and purified to >95% homogeneity from 6-7 day old Sprague-Dawley rat cortices by immunopanning as previously described (Chan et al. 2004 Neuron 43:2; 183-191). Briefly, rat cortices were extracted, diced, and digested with papain at 37° C. Cells were then triturated and resuspended in panning buffer containing insulin, then sequentially immunopanned at room temperature on three plates containing Ran-2, GalC, and O4 antibodies from hybridomal supernatant. The remaining O4^+GalC^− OPCs were removed from the plates with trypsin, resuspended in growth media, and seeded at 37° C. onto pDL-coated flasks to facilitate proliferation. Once sufficient numbers were reached, OPCs were split, plated in differentiation media at 200,000 cells/well, and allowed to differentiate for 24 hours. […] Following 48 hours of treatment, media was removed and the cells were incubated in FDA/PI (fluorescein-diacetate/propidium iodide) for 3 minutes, rinsed with 1×PBS, and imaged for live/dead cell quantification. In living cells, non-fluorescent FDA is converted into fluorescein, giving off a bright green fluorescence. PI is membrane impermeable and therefore excluded from live cells. Therefore, green cells indicate viable cells and red cells indicate non-viable cells. […] Treatment with 200 U/ml IFN-γ alone reduced the number of green cells and increased the number of red cells (C). […] FIG. 2B illustrates the quantitation of the experiment in FIG. 2a. […] Treatment with IFN-γ alone caused a roughly 40-50% decrease in cell survival. […] Data is presented as the mean+/−SEM for an N=3/group. (*p<0.05, **p<0.005)
# [4] = system: cultured rat cerebellar slices; assay: Myelin basic protein and toluidine blue staining of ex vivo cultured cerebellar slices treated with IFN-γ; assay type: cell-based; conditions: seven days
# Protocol: Briefly, cerebellar sections were prepared from 6 day old Sprague-Dawley rat pups. […] Two to three sections were collected per well and grown in growth media with Fungizone. […] Sections were then stained for myelin-basic protein (A-E) and toluidine blue (F-H), used to visualize myelin and neuronal cytoarchitecture.
# [5] = system: SJL mice with remitting/relapsing EAE; assay: Remitting/relapsing EAE (PLP139-151), clinical scores; assay type: in vivo, mouse
# [6] = system: C57BL/6J mice with experimental autoimmune encephalitis (EAE); assay: Chronic EAE (MOG35-55), clinical scores and symptom onset; assay type: in vivo, mouse
# [7] = 5.0 μM guanabenz co-treatment with IFN-γ
# [8] = interferon-beta 5,000 U/day/mouse alone
molecule,measurement,setting,value
N=C(N)N/N=C/c1c(Cl)cccc1Cl [guanabenz],onset of clinical symptoms,[1]; guanabenz 8 mg/kg alone,~18 days
same,"IFN-γ induced apoptosis (TUNEL, photomicrographs)",[2]; [7],reduced IFN-γ induced apoptosis
same,reduction of IFN-γ induced apoptosis compared to IFN-γ alone,[2]; [7],about 87.5%
same,"cell viability (green/red cells, FDA/PI)","[3]; 1.25 μM guanabenz + 200 U/ml IFN-γ, 48 hours",partially restored viability
same,increase in cell survival compared to IFN-γ alone,[3]; 1.25 μM guanabenz + IFN-γ,roughly 25%
same,"cell viability (green/red cells, FDA/PI)","[3]; 2.5 μM guanabenz + 200 U/ml IFN-γ, 48 hours",partially restored viability
same,increase in cell survival compared to IFN-γ alone,[3]; 2.5 μM guanabenz + IFN-γ,roughly 25%
same,cell survival (FIG. 2B),[3]; 5.0 μM guanabenz + IFN-γ,increased survival almost to control levels
same,"cell viability (green and red cells, FDA/PI)","[3]; 5.0 μM guanabenz alone, no IFN-γ, 48 hours",does not impact cell viability
same,percent survival (FIG. 2B),[3]; guanabenz alone vs untreated control,comparable percent survival
same,myelin fiber and axonal structure,[4]; 2.5 μM guanabenz + 100 U/ml IFN-γ,"restored intact, long myelin fiber and axonal structure"
same,myelin fiber and axonal structure,[4]; 5.0 μM guanabenz + 100 U/ml IFN-γ,"restored intact, long myelin fiber and axonal structure"
same,myelin fiber and axonal structure,[4]; 10.0 μM guanabenz + 100 U/ml IFN-γ,"restored intact, long myelin fiber and axonal structure"
same,average decrease in relapse severity,[5]; 8 mg/kg IP daily from beginning of remission,about 50%
same,average decrease in relapse severity,[5]; 16 mg/kg IP daily from onset of remission,about 40%
same,"symptom severity during the remission phase, compared to vehicle",[5]; 16 mg/kg/day IP,greater decrease in symptom severity during the remission phase
same,clinical score by days post symptom onset,[6]; 4 mg/kg/day,Neither 4 mg/kg/day nor 16 mg/kg/day caused a significant reduction in clinical score
same,average symptom onset,[6]; 4 mg/kg/day IP from PID 7,19 days
same,clinical score by days post symptom onset (symptom severity),[6]; 8 mg/kg/day,significantly reduced symptom severity
same,average symptom onset,[6]; 8 mg/kg/day IP from PID 7,about 22 days
same,clinical score by days post symptom onset,[6]; 16 mg/kg/day,Neither 4 mg/kg/day nor 16 mg/kg/day caused a significant reduction in clinical score
same,average symptom onset,[6]; 16 mg/kg/day IP from PID 7,about 25 days
same,delay in symptom onset,"[6]; all guanabenz doses (4-16 mg/kg/day), IP daily from PID 7",significant delay in symptom onset
"IFN-γ: inflammatory cytokine used to challenge cultured oligodendrocyte lineage cells and cerebellar slices (protein, UniProt P01579 24-161, looked up) Interferon gamma: QDPYVKEAENLKKYFNAGHSDVADNGTLFLGILKNWKEESDRKIMQSQIVSFYFKLFKNFKDDQSIQKSVETIKEDMNVKFFNSNKKKRDDFEKLTNYSVTDLNVQRKAIHELIQVMAELSPAAKTGKRKRSQMLFRG",increase in apoptosis compared to control cells,[2]; IFN-γ alone,2-3 fold
same,decrease in cell survival,"[3]; IFN-γ alone, 200 U/ml, 48 hours",40-50%
"interferon-beta (protein, UniProt P01575 22-182, looked up) Interferon beta: INYKQLQLQERTNIRKCQELLEQLNGKINLTYRADFKIPMEMTEKMQKSYTAFAIQEMLQNVFLVFRNNFSSTGWNETIVVRLLDELHQQTVFLKTVLEEKQEERLTWEMSSTALHLKSYYWRVQRYLKLMKYNSYAWMVVRAEIFRNFLIIRRLTRNFQN",delay of onset of clinical symptoms,[1]; [8],did not significantly delay onset of clinical symptoms
same,onset of clinical symptoms,[1]; [8],~13 days
